The results in this text go back to patent US20080085889A1, “Amidomethyl-Substituted 1-(Carboxyalkyl) Cyclopentyl-Carbonylamino-Benzazepine-N-Acetic Acid Compounds, Process and Intermediate Products for Their Preparation and Pharmaceutical Compositions Containing Them” (SOLVAY PHARMACEUTICALS GmbH, priority 2003, published 2008).

In data set [1] the test system is TUNEL positive cells in heart, liver and kidney. Description: Adriamycin toxicity: determination of anti-apoptotic activity (TUNEL staining). The class given is in vivo, Wistar rats. The following applies: adriamycin alone, 3 x 5 mg/kg i.p. (cumulative 15 mg/kg), vehicle minipump; day 5; ± SEM. Here is the method: 2. Adriamycin Toxicity: Determination of Anti-Apoptotic Activity
Wistar rats, weighing 200-250 g, were anesthetized with chloral hydrate, 400 mg/kg, and Alzet osmotic minipumps (2 ML1), were implanted subcutaneously (=s.c.). The pumps had been filled with either vehicle or solution containing compounds of the invention at the appropriate concentration and primed prior to implantation. Animals subsequently received adriamycin at three equal daily doses of 5 mg/kg i.p. on days 1, 2 and 3. Rats were euthanized 5 days after the first injection of adriamycin and transcardially perfused with a solution containing 4% paraformaldehyde in phosphate buffer. The heart, liver and kidneys were subsequently removed and embedded in parafin.
TUNEL staining: For terminal deoxynucleotide transferase-mediated dUTP nick end-label (TUNEL) based histological analysis, organs were post-fixed for 5 days at 4° C. and paraffin-embedded. TUNEL staining was performed on 10 μm thick paraffin sections using the ApopTag Peroxidase kit (S 7100, Oncor Appligene, Heidelberg, Germany) according to the manufacturer's instructions. Briefly, after pretreatment with proteinase K and quenching of endogenous peroxidase, sections were incubated in equilibration buffer followed by working strength TdT enzyme (incorporating digoxigenin labeled dUTP nucleotides to free 3′-OH DNA termini), (1 hr, 37° C.). Sections were incubated in stop/wash buffer (30 min, 37° C.), then with anti-digoxigenin-peroxidase conjugate (30 min) followed by DAB substrate (Sigma, Deisenhofen, Germany) and lightly counterstained with methylgreen.
Wistar rats were administered adriamycin at the cumulative dose of 15 mg/kg i.p. The test substance of Example 4 was administered s.c. at the doses of 20, 50 or 100 mg/kg and day by means of Alzet osmotic minipumps over 5 days. Animals were euthanized and transcardially perfused 5 days after the first injection of adriamycin and the heart, kidney and liver were processed for TUNEL staining. Densities of TUNEL positive cells were determined as described in the methods. Results for each organ (heart, liver, kidney) were measured as mean densities of TUNEL positive cells ±SEM for the control groups and the different test groups (20, 50 or 100 mg/kg and day of test compound of Example 4) and listed in table 8 below.
Comparisons between groups were performed by means of Student's t test (**P<0.01; ***P<0.001 compared to vehicle treated rats).

Data set [2] addresses T1, soluble, human recombinant NEP (Homo sapiens, UniProt P08473).
T1 construct: soluble, human recombinant NEP; purchased Prof; Crine, University of Montreal, Canada
Description: In-vitro investigation of the NEP inhibitory action (fluorescence-quenched Big-ET-1 analogue, HPLC). The data set is classed as biochemical. Here is the method: 1. In-Vitro Investigation of the NEP Inhibitory Action of the Substances
In this test, the measure of the inhibitory activity of the substances which was determined was their IC50 value. The IC50 value of a test substance having enzyme-inhibitory activity is that concentration of the test substance at which 50% of the enzymatic activity of the NEP is blocked.
70 μl test buffer, 10 μl enzyme working solution and 10 μl test substance solution were mixed in an Eppendorf vessel and preincubated at 37° C. for 15 minutes (=min.). Then 10 μl substrate stock solution was added and the test batch was incubated for 60 minutes at 37° C. The enzymatic reaction was then ended by 5-minutes' heating to 95° C. After centrifugation (Heraeus Biofuge B, 3 min.), the liquid supernatant was investigated by HPLC in accordance with the following specifications.
The substrate was separated from cleavage products by means of reversed-phase HPLC (CC 125/4 Nucleosil 300/5 C18 RP column with CC 8/4 Nucleosil 100/5 C18 precolumn, from Macherey-Nagel, Düren, Germany). For this, 60 μl of the test mixture was injected into the HPLC sample injection point and the column was then eluted at a flow rate of 1 ml/min with the following gradient:
Mobile Phase B: 100% acetonitrile+0.5M H3PO4
All the peptides were detected by absorption at 214 nm and by fluorescence with an excitation wavelength of 328 nm and an emission wavelength of 393 nm.
Upon enzymatic cleavage of the peptide, the fluorophore (=Mca) and the quencher end up in different peptide fragments, which reduces the effectiveness of the quench. […] The increasing fluorescence signal (corresponds to the area, A) of the HPLC peak of the peptide with the non-quenched Mca fluorophore is used for the further calculations. This signal was compared for samples with (=Ainhib) and without (=Acontrol) test substance of Formula I, and the value “% inhibition” was calculated on the basis of the respective peak areas according to the following formula: % inhibition=100*(1−Ainhib/Acontrol)
All the samples were measured in duplicates and average values were calculated therefrom. A standard inhibitor (10 nM thiorphan) and a solvent control (0.1% DMSO) were likewise measured as quality controls on each run. In this test model the test substances of Formula I listed in the following Table 1 had the IC50 values given below: […]

Data set [3] concerns formation of ET-1 from Big-ET-1. In words: In vivo inhibition of the Big-ET-1-induced blood pressure increase in anaesthetised rats, i.v. single dose. Set-up: species or system Rats (Sprague-Dawley). The following applies: Rattus norvegicus, iv, 10 μmol/kg, 5 min before 0.5 nmol/kg Big-ET-1, negative values indicate inhibition, read-out: % substance-related inhibition of the maximum Big-ET effect on SAP vs. control. From the text: 3. In Vivo Investigation of the Inhibitory Action of the Substances on the Formation of ET-1 from Big-ET-1 in Rats
ET-1 is an endogenous substance with strong vasoconstrictive effect. An increase in the ET-1 level results in an increase in blood pressure. Upon infusion of Big-ET-1, an increase in blood pressure takes place to the extent that ET-1 is produced therefrom by enzyme-catalysed cleavage of Big-ET-1. As a measurement of the enzyme-inhibiting action of the substances, their inhibitory action on the increase in blood pressure induced by infusion of Big-ET-1 was determined.
Rats (Sprague-Dawley, CRLD=Charles River) were anaesthetised with 1 ml/kg Rompun/Ketavet 1:1. A pressure transducer (Statham) was inserted into the carotid artery to measure blood pressure. One jugular vein was cannulated for administering the substance, and the other for administering Big-ET-1. After a 20-minute equilibration phase, the rats were administered the corresponding test substance of Formula I at a dose of as a rule 10 μmol/kg (if not stated otherwise), or a vehicle. Five minutes later, 0.5 nmol/kg Big-ET-1 was infused over a period of one minute. The systolic (SAP=systolic arterial pressure) and the diastolic (DAP=diastolic arterial pressure) blood pressure and the heart rate were each measured before administration of the substance, then immediately before administration of Big-ET and in each case every five minutes over a period of 30 minutes after Big-ET administration using the pressure transducer in known manner. The maximum Big-ET-induced increase in blood pressure and the maximum lowering of heart rate were calculated from the measured values as the difference between the value measured at the moment of maximum development of the Big-ET action (typically after 5 min.) and the value measured before Big-ET infusion. Furthermore, the integral of the blood pressure curve under the influence of Big-ET-1 was determined over 30 minutes (AUC=area under the curve).
The percentage inhibition of the maximum Big-ET-1 effect on the systolic arterial blood pressure (SAP) after i.v. administration of the test substances compared with administration of a vehicle is set forth in the following Table 3a:
Data given in table 3a as negative values indicate an inhibitory effect.

Data set [4] concerns the target T2, His6-tagged hSEP ectodomain (Homo sapiens, UniProt Q495T6).
T2 construct: His6-tagged hSEP ectodomain; His6; purchased Innogenetics, Ghent, Belgium
T2 sequence (Q495T6 49-779 limits assumed): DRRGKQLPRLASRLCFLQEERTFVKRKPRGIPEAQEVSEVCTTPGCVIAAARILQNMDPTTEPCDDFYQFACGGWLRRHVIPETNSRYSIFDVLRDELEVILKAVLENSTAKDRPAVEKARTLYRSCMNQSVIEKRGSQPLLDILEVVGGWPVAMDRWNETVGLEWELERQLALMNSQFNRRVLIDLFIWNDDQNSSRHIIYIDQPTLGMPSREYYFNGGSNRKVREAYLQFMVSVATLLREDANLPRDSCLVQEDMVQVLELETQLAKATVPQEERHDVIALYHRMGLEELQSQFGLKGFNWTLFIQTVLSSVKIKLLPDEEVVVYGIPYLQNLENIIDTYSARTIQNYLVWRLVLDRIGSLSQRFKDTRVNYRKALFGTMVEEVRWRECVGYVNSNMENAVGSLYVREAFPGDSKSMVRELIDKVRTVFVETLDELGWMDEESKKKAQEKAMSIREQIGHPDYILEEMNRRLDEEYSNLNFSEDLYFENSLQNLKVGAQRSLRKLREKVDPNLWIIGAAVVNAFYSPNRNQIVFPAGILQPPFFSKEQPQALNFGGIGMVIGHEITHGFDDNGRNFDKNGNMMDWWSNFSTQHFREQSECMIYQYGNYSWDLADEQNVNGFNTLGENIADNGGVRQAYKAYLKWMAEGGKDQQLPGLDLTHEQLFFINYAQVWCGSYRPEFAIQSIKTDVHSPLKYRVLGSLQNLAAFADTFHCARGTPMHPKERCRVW
Description: In vitro investigation of the hSEP-inhibitory action (fluorescence-quenched Big-ET-1 analogue, HPLC). The data set is classed as biochemical. How it is done:
2. In Vitro Investigation of the hSEP-Inhibitory Action of the Substances
In this test, the measure of the inhibitory activity of the substances which was determined was their IC50 value. The IC50 value of a test substance having enzyme-inhibitory activity is that concentration of the test substance at which 50% of the enzymatic activity of the hSEP is blocked.
The test and the HPLC procedure were carried out analogously to the manner set forth above for determining the in vitro inhibitory action of the test substances on NEP. 10 nM phosphoramidon served as standard inhibitor in the HPLC procedure. In this test model the test substances of Formula I listed in the following Table 2 had the IC50 values given below: […]

Structures are written as SMILES.

T1 sequence (P08473 52-750 limits assumed): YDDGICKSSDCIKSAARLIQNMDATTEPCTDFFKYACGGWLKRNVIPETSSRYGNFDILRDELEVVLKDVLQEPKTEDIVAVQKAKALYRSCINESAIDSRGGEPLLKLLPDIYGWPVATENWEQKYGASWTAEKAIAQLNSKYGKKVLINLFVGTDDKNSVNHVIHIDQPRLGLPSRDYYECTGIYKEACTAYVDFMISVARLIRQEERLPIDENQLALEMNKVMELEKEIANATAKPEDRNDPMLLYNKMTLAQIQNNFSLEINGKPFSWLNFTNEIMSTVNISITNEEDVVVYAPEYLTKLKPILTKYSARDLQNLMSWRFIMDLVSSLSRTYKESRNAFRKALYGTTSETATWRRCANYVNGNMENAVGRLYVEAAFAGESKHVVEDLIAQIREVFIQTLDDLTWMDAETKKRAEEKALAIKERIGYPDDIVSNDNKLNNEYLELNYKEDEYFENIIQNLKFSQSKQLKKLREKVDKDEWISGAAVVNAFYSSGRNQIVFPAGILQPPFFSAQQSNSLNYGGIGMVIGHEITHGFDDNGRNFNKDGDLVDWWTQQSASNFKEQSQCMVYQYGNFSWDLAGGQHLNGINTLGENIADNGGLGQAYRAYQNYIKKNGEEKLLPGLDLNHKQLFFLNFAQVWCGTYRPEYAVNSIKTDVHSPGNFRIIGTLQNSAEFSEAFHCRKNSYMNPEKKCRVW

For the compound `COc1cccc2c1C(=O)c1c(O)c3c(c(O)c1C2=O)C[C@@](O)(C(=O)CO)C[C@@H]3O[C@H]1C[C@H](N)[C@H](O)[C@H](C)O1` [Adriamycin, adriamycin, reference compound], in data set [1], the “TUNEL positive cells, Heart” value came out at 5.417 ± 0.146 cells/mm3 × 102; the “TUNEL positive cells, Kidney” value is reported as 9.438 ± 0.198 cells/mm3 × 102; the “TUNEL positive cells, Liver” value was found to be 10.420 ± 0.275 cells/mm3 × 102.
`O=C(O)CN1C(=O)[C@@H](NC(=O)C2(CC(CC(=O)NC3CCCCNC3=O)C(=O)O)CCCC2)CCc2ccccc21` (mixture of isomers) [Example 17]: the figures for the IC50 in data set [2] and in data set [4] were less than 1 nM and 24 nM, respectively. In data set [3], the change in vivo at 10 µmol/kg is -46%.
On the same counts, the results for `COCCNC(=O)CC(CC1(C(=O)N[C@H]2CCc3ccccc3N(CC(=O)O)C2=O)CCCC1)C(=O)O` (mixture of isomers) [Example 16] are 20 nM, 15 nM and -45%.
On the same counts, the results for `CCN(CCCCN)C(=O)CC(CC1(C(=O)NC2CCc3ccccc3N(CC(=O)O)C2=O)CCCC1)C(=O)O` (racemic) [Example 76, 4-[(4-aminobutyl)(ethyl)amino]-2-{[1-({[1-(carboxymethyl)-2-oxo-2,3,4,5-tetrahydro-1H-1-benzazepin-3-yl]amino}carbonyl)cyclopentyl]methyl}-4-oxobutanoic acid] are 10 nM, 4 nM and -93%.
On the same counts, the results for `O=C(O)CN1C(=O)[C@@H](NC(=O)C2(CC(CC(=O)NCC3CC3)C(=O)O)CCCC2)CCc2ccccc21` (mixture of isomers) [Example 23] are 10.6 nM, 17.3 nM and -40%.
As to `COc1ccc(C(=O)CNC(=O)CC(CC2(C(=O)N[C@H]3CCc4ccccc4N(CC(=O)O)C3=O)CCCC2)C(=O)O)cc1` (mixture of isomers) [Example 20], the IC50 in data set [2] was 12.9 nM; in data set [4] it was 36.3 nM. For the same compound, in data set [3], the change in vivo at 10 µmol/kg is -67%.
Regarding `COc1ccc(CNC(=O)CC(CC2(C(=O)N[C@H]3CCc4ccccc4N(CC(=O)O)C3=O)CCCC2)C(=O)O)cc1` (mixture of isomers) [Example 24], the IC50 in data set [2] was 11.1 nM; in data set [4], 27 nM. Moreover, the change in vivo at 10 µmol/kg in data set [3] was -54%.
On the same counts, the results for `CN(C)CCN(C)C(=O)CC(CC1(C(=O)NC2CCc3ccccc3N(CC(=O)O)C2=O)CCCC1)C(=O)O` (centres unmarked) [Example 59, 2-{[1-({[1-(carboxymethyl)-2-oxo-2,3,4,5-tetrahydro-1H-1-benzazepin-3-yl]amino}carbonyl)cyclopentyl]methyl}-4-[[2-(dimethylamino)ethyl](methyl)amino]-4-oxobutanoic acid] are 12 nM, 4 nM and -98%.
Turning to `CN(CCO)C(=O)CC(CC1(C(=O)NC2CCc3ccccc3N(CC(=O)O)C2=O)CCCC1)C(=O)O` (racemic) [Example 43, 2-{[1-({[1-(carboxymethyl)-2-oxo-2,3,4,5-tetrahydro-1H-1-benzazepin-3-yl]amino}carbonyl)cyclopentyl]methyl}-4-[(2-hydroxyethyl)(methyl)amino]-4-oxobutanoic acid], the figures for the IC50 in data set [2] and in data set [4] were 3.2 nM and 2.9 nM, respectively.
